Measured values taken from PubChem BioAssay (NCI).
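Briefly, cells in 96-well plates were exposed to five compound concentrations for 48 h, and endpoints were estimated by linear interpolation. Here, GI50 denotes the concentration required for 50% inhibition of growth. TGI denotes the concentration required for complete inhibition of growth.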

Legend:
Test in all cases: NCI-60 cell line screen, 48 h
[1] = system: MALME-3M melanoma
[2] = system: CCRF-CEM leukemia
[3] = system: HL-60(TB) leukemia
[4] = system: SK-MEL-5 melanoma
[5] = system: SK-MEL-28 melanoma
[6] = system: COLO 205 colon
[7] = system: SNB-75 CNS
[8] = system: NCI-H226 lung
[9] = system: KM12 colon
[10] = system: DU-145 prostate

Row | SMILES | TGI [1] [µM] | TGI [2] [µM] | TGI [3] [µM] | TGI [4] [µM] | TGI [5] [µM] | TGI [6] [µM] | TGI [7] [µM] | TGI [8] [µM] | TGI [9] [µM] | GI50 [4] [nM] | GI50 [10] [µM] | TGI [10] [µM] | GI50 [7] [µM] | GI50 [9] [nM] | GI50 [2] [nM] | GI50 [3] [nM] | GI50 [5] [µM] | GI50 [6] [nM] | GI50 [8] [µM] | GI50 [1] [µM]
1 | CC12CCC(=O)C[C@H]1CCC(OC=O)C2Br (some centres not stated) | > 100 | > 100 | > 100 | > 100 | > 100 | > 100 | > 100 | > 100 | > 100 | – | – | – | – | – | – | – | – | – | – | –
2 | COc1ccc(OCC(=O)O)c2c1CCCC2=O | > 100 | > 100 | > 100 | > 100 | > 100 | > 100 | > 100 | > 100 | > 100 | – | – | – | – | – | – | – | – | – | – | –
3 | COc1cnc2c(c1)C(=O)c1c-2n(CCCNC2=NCCS2)c(=O)c2cc([N+](=O)[O-])ccc12 | – | – | – | 0.157 | – | – | 1.81 | – | 3.13 | 28.4 | < 0.01 | 1.38 | 0.0329 | 1110 | – | – | – | – | – | –
4 | On1c(-c2ccccc2)c(-c2ccccc2N2CCCC2)c2ccccc21 | > 100 | > 100 | > 100 | > 100 | > 100 | > 100 | > 100 | > 100 | > 100 | – | – | – | – | – | – | – | – | – | – | –
5 | O=C(OC1CCC(=C2SCCCS2)[C@H]1C1SCCCS1)c1ccccc1 (some centres not stated) | > 100 | > 100 | > 100 | – | – | > 100 | – | > 100 | > 100 | – | – | – | – | – | – | – | – | – | – | –
6 | CC(=O)Nc1ccc(-c2csc(Nc3cccc(-c4csc(C)n4)c3)n2)cc1 | – | > 50 | – | 8.62 | > 37.3 | > 50 | – | 16.8 | 6.07 | 260 | 3.85 | 22.7 | – | 404 | > 50000 | 609 | 7.32 | 1000 | 4.92 | –
7 | COc1ccc(-c2nnc3n(C)c(=O)c4ccccc4n23)cc1N | – | > 100 | – | > 100 | – | 4.44 | – | > 100 | > 100 | 59.8 | 3.09 | > 100 | – | 49.9 | 2750 | – | – | 46.9 | > 100 | –
8 | Cc1ccc2nc(/C(=C/c3ccc(/C=C(\NC(=O)c4ccccc4)c4nc5ccc(C)cc5[nH]4)c(C)c3)NC(=O)c3ccccc3)[nH]c2c1 | 59.9 | 41.9 | – | 33.5 | 44.1 | 80.4 | > 100 | 77.5 | 37.5 | – | – | – | – | – | – | – | – | – | – | –
9 | O=C(/C(=C/c1ccc(Cl)cc1)c1ccccc1)c1ccccc1 | 31.3 | > 100 | 66.5 | – | 30.6 | 33 | 69.4 | 31.7 | 30.5 | – | – | – | – | – | – | – | – | – | – | –
10 | CN1C(=O)c2ccccc2NC(=O)C12O[C@@H]2c1ccccc1 (some centres not stated) | > 100 | > 100 | > 100 | > 100 | > 100 | > 100 | > 100 | – | > 100 | – | – | > 100 | – | – | – | – | – | – | – | –
11 | CC1(C)COC(c2cccc3c2C(=O)c2cccc(Cl)c2-3)=N1 | > 100 | > 100 | > 100 | 73.4 | > 100 | > 100 | > 100 | – | > 100 | – | – | – | – | – | – | – | – | – | – | –
12 | CCOC(=O)c1ccc(/C(C)=N/NC(N)=S)cc1 | – | > 100 | > 100 | > 100 | > 100 | > 100 | > 100 | – | – | – | – | – | – | – | – | – | – | – | – | –
13 | O=C(Nc1cccc(C(F)(F)F)c1)c1ccc(NC2=C(Cl)C(=O)N(Cc3ccc(Cl)cc3Cl)C2=O)cc1 | – | 5.46 | 12.4 | 3.5 | 30.9 | 24.2 | 33.3 | 24 | 31.4 | 1780 | 11.8 | 30.2 | 14.6 | 14600 | 2270 | 2720 | 14.1 | 4780 | 5.92 | –
14 | CCOC(=O)Nc1cc2c(c(N)n1)N=C(c1ccccc1)CO2 | 36.2 | 4.42 | – | 5.9 | 77.7 | 0.885 | – | 41.4 | 2.11 | 174 | 0.194 | 1.44 | – | 36.6 | 65.3 | 30.3 | 15.6 | 102 | 4.16 | 5.11
15 | C/C(CC(=O)Nc1ccc(C)c(C)c1)=N\N(c1ccccc1)c1ccccc1 | > 100 | 64.4 | > 100 | > 100 | > 100 | 34.6 | > 100 | > 100 | > 100 | – | – | – | – | – | – | – | – | – | – | –
16 | COc1cc(C(=O)N2CCN(C(=O)c3cc(OC)c(OC)c(OC)c3)C2=S)cc(OC)c1OC | 27 | 34.1 | 34.3 | – | 35.5 | 40.4 | 21.6 | 39.1 | 39.7 | – | 13.6 | 27.7 | 7.1 | 14200 | 12200 | 16000 | 17.2 | 19400 | 19.5 | 13.4
17 | CN(C)C1CCN(C(=O)c2ccc(NC(=O)Nc3ccc(-c4nc(N5CCOCC5)c5cccn5n4)cc3)cc2)CC1 | – | 4.69 | 1.76 | 0.662 | 0.849 | 1.42 | 0.0711 | 2.99 | 7.69 | 153 | 0.0335 | 12.6 | 0.0138 | 155 | 48.3 | 105 | 0.0724 | 53.5 | 0.0435 | –
18 | COC(=O)C1CCCC2(C1)OCCO2 (configuration not stated) | > 100 | > 100 | – | > 100 | > 100 | > 100 | > 100 | > 100 | > 100 | – | – | – | – | – | – | – | – | – | – | –
19 | CC(C)(C)c1cc(C(P(=O)(O)O)P(=O)(O)O)cc(C(C)(C)C)c1O | – | > 100 | > 100 | > 100 | > 100 | – | > 100 | > 100 | > 100 | – | – | – | – | – | – | – | – | – | – | –
